Measured values published in BindingDB's records for doi:10.1021/jm9704863 (Cor Therapeutics, 1998).

Key:
[1] = target: Integrin alpha-IIb/beta-3 (Homo sapiens, UniProt P08514+P05106); experiment: Inhibition of platelet aggregation induced by 20 uM adenosine 5'-diphosphate (ADP) in human platelet rich plasma (h-PRP).
[2] = Inhibition of 20 uM ADP-induced platelet aggregation in human platelet-rich plasma

Integrin alpha-IIb/beta-3, sequence (P05106 27-788 limits assumed): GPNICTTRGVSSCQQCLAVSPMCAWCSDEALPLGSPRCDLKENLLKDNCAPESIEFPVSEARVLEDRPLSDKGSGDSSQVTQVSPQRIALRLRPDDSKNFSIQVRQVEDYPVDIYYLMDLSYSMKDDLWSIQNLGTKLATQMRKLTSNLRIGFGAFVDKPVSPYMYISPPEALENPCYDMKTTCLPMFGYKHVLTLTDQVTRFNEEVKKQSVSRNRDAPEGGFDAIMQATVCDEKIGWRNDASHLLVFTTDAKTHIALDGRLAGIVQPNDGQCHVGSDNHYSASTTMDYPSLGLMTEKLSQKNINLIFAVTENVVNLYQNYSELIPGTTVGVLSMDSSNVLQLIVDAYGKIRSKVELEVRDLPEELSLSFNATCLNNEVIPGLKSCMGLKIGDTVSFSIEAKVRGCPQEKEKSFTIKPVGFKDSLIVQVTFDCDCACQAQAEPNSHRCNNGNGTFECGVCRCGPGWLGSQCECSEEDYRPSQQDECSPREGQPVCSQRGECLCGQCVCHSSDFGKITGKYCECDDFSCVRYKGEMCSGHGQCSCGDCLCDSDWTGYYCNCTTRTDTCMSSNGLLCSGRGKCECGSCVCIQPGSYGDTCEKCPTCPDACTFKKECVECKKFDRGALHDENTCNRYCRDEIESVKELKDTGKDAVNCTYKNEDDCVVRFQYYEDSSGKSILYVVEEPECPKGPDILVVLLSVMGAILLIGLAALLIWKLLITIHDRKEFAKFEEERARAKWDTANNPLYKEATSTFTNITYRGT
Integrin alpha-IIb/beta-3, sequence (P08514 32-887 limits assumed): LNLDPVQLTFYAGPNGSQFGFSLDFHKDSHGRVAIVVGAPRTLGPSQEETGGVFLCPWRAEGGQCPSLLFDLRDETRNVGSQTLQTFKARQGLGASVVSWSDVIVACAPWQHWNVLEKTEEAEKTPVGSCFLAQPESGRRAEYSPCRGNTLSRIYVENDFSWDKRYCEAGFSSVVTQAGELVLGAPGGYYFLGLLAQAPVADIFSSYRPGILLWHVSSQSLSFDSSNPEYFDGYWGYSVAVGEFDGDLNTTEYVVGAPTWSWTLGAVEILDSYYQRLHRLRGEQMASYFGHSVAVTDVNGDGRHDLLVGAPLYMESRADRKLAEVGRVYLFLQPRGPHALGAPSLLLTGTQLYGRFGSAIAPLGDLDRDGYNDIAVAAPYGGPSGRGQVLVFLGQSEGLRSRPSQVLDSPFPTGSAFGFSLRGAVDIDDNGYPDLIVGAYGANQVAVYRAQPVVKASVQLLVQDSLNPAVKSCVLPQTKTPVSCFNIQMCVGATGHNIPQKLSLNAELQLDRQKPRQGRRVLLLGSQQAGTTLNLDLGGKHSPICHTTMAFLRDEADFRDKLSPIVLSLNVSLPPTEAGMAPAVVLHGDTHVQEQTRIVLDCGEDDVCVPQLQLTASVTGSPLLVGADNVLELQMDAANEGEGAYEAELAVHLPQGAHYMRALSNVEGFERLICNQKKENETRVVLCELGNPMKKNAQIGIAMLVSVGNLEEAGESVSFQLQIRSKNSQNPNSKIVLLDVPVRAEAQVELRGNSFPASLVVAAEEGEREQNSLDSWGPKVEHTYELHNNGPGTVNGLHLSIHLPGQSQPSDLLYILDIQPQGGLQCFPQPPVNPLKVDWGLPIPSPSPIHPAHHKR
Integrin alpha-IIb/beta-3, sequence (P08514 891-1039 limits assumed): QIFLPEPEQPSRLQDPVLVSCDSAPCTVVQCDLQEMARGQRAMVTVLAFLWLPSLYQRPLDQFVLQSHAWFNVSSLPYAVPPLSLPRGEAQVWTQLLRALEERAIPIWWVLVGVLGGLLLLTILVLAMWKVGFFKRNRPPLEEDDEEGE

For `CCCCS(=O)(=O)NC(CNC(=O)CCNC(=O)c1[nH]nc2cc(C(=N)N)ccc12)C(=O)O` (configuration not stated) [2-(Butane-1-sulfonylamino)-3-{3-[(6-carbamimidoyl-1H-indazole-3-carbonyl)-amino]-propionylamino}-propionic acid], the IC50 [1] was 0.053 µM.

Work on `CCCCS(=O)(=O)NC(CNC(=O)CCNC(=O)c1cc2ccc(C(=N)N)cc2[nH]1)C(=O)O` (configuration not stated) [2-(Butane-1-sulfonylamino)-3-{3-[(6-carbamimidoyl-1H-indole-2-carbonyl)-amino]-propionylamino}-propionic acid] yielded an IC50 [1] of 0.055 µM.

`CC(C)(NC(=O)c1cc2cc(C(=N)N)ccc2[nH]1)C(=O)NC(CC(=O)O)c1ccccc1` (configuration not stated) [3-{2-[(5-Carbamimidoyl-1H-indole-2-carbonyl)-amino]-2-methyl-propionylamino}-3-phenyl-propionic acid] gave an IC50 [1] of 250 µM.

In the case of `N=C(N)c1ccc2[nH]c(C(=O)NCC(=O)NC(CC(=O)O)c3ccccc3)cc2c1` (configuration not stated) [3-{2-[(5-Carbamimidoyl-1H-indole-2-carbonyl)-amino]-acetylamino}-3-phenyl-propionic acid], the IC50 [1] is reported as 50 µM.

With `CN(CC(=O)NC(CC(=O)O)c1ccccc1)C(=O)c1cc2cc(C(=N)N)ccc2[nH]1` (configuration not stated) [3-{2-[(5-Carbamimidoyl-1H-indole-2-carbonyl)-methyl-amino]-acetylamino}-3-phenyl-propionic acid] the IC50 [1] was 25 µM.

For `N=C(N)c1ccc2[nH]c(C(=O)NC(CC(=O)NC(CC(=O)O)c3ccccc3)C(F)(F)F)cc2c1` (configuration not stated) [3-{3-[(5-Carbamimidoyl-1H-indole-2-carbonyl)-amino]-4,4,4-trifluoro-butyrylamino}-3-phenyl-propionic acid], the IC50 [1] was 50 µM.

With `N=C(N)c1ccc2[nH]c(C(=O)Nc3cccc(C(=O)NC(CC(=O)O)c4ccccc4)c3)cc2c1` (configuration not stated) [3-{3-[(5-Carbamimidoyl-1H-indole-2-carbonyl)-amino]-benzoylamino}-3-phenyl-propionic acid] the IC50 [1] was 25 µM.

`CC(CC(=O)NC(CC(=O)O)c1ccccc1)NC(=O)c1cc2cc(C(=N)N)ccc2[nH]1` (configuration not stated) [3-{3-[(5-Carbamimidoyl-1H-indole-2-carbonyl)-amino]-butyrylamino}-3-phenyl-propionic acid] showed an IC50 [1] of 5 µM.

In the case of `N=C(N)c1ccc2[nH]c(C(=O)NCCC(=O)NC(CC(=O)O)c3ccccc3)cc2c1` (configuration not stated) [3-{3-[(5-Carbamimidoyl-1H-indole-2-carbonyl)-amino]-propionylamino}-3-phenyl-propionic acid], the IC50 [1] is reported as 8 µM.

In the case of `CN(CCC(=O)NC(CC(=O)O)c1ccccc1)C(=O)c1cc2cc(C(=N)N)ccc2[nH]1` (configuration not stated) [3-{3-[(5-Carbamimidoyl-1H-indole-2-carbonyl)-methyl-amino]-propionylamino}-3-phenyl-propionic acid], the IC50 [1] is reported as 5 µM.

`N=C(N)c1ccc2oc(C(=O)NCCC(=O)NC(CC(=O)O)c3cc(F)ccc3F)cc2c1` (configuration not stated) [3-{3-[(5-Carbamimidoyl-benzofuran-2-carbonyl)-amino]-propionylamino}-3-(2,5-difluoro-phenyl)-propionic acid] showed an IC50 [1] of 0.3 µM.

`N=C(N)c1ccc2oc(C(=O)NCCC(=O)NC(CC(=O)O)c3ccc(F)c(F)c3)cc2c1` (configuration not stated) [3-{3-[(5-Carbamimidoyl-benzofuran-2-carbonyl)-amino]-propionylamino}-3-(3,4-difluoro-phenyl)-propionic acid] gave an IC50 [1] of 0.5 µM.

Work on `COc1ccc(C(CC(=O)O)NC(=O)CCNC(=O)c2cc3cc(C(=N)N)ccc3o2)cc1OC` (configuration not stated) [3-{3-[(5-Carbamimidoyl-benzofuran-2-carbonyl)-amino]-propionylamino}-3-(3,4-dimethoxy-phenyl)-propionic acid] yielded an IC50 [1] of 0.3 µM.

`N=C(N)c1ccc2oc(C(=O)NCCC(=O)NC(CC(=O)O)c3cc(F)cc(F)c3)cc2c1` (configuration not stated) [3-{3-[(5-Carbamimidoyl-benzofuran-2-carbonyl)-amino]-propionylamino}-3-(3,5-difluoro-phenyl)-propionic acid] gave an IC50 [1] of 0.35 µM.

`N=C(N)c1ccc2oc(C(=O)NCCC(=O)NC(CC(=O)O)c3ccccc3)cc2c1` (configuration not stated) [3-{3-[(5-Carbamimidoyl-benzofuran-2-carbonyl)-amino]-propionylamino}-3-phenyl-propionic acid] showed an IC50 [1] of 0.25 µM.

In the case of `N=C(N)c1ccc2oc(C(=O)NCCC(=O)NC(CC(=O)O)c3cccnc3)cc2c1` (configuration not stated) [3-{3-[(5-Carbamimidoyl-benzofuran-2-carbonyl)-amino]-propionylamino}-3-pyridin-3-yl-propionic acid], the IC50 [1] is reported as 0.2 µM.

In the case of `N=C(N)c1ccc2oc(C(=O)NCCC(=O)NC(CC(=O)O)C(F)(F)F)cc2c1` (configuration not stated) [3-{3-[(5-Carbamimidoyl-benzofuran-2-carbonyl)-amino]-propionylamino}-4,4,4-trifluoro-butyric acid], the IC50 [1] is reported as 0.25 µM.

`N=C(N)c1ccc2oc(C(=O)NCCC(=O)NC(CCc3c[nH]c4ccccc34)CC(=O)O)cc2c1` (configuration not stated) [3-{3-[(5-Carbamimidoyl-benzofuran-2-carbonyl)-amino]-propionylamino}-5-(1H-indol-3-yl)-pentanoic acid] showed an IC50 [1] of 0.6 µM.

With `C#CC(CC(=O)O)NC(=O)CCNC(=O)c1cc2cc(C(=N)N)ccc2o1` (configuration not stated) [3-{3-[(5-Carbamimidoyl-benzofuran-2-carbonyl)-amino]-propionylamino}-pent-4-ynoic acid] the IC50 [1] was 0.3 µM.

In the case of `CN(CCC(=O)NC(CC(=O)O)c1ccccc1)C(=O)c1cc2cc(C(=N)N)ccc2o1` (configuration not stated) [3-{3-[(5-Carbamimidoyl-benzofuran-2-carbonyl)-methyl-amino]-propionylamino}-3-phenyl-propionic acid], the IC50 [1] is reported as 0.25 µM.

Work on `N=C(N)c1ccc2c(C(=O)NCCC(=O)NC(CC(=O)O)c3ccccc3)[nH]nc2c1` (configuration not stated) [3-{3-[(6-Carbamimidoyl-1H-indazole-3-carbonyl)-amino]-propionylamino}-3-phenyl-propionic acid] yielded an IC50 [1] of 0.63 µM.

For `N=C(N)c1ccc2cc(C(=O)NCCC(=O)NC(CC(=O)O)c3ccccc3)[nH]c2c1` (configuration not stated) [3-{3-[(6-Carbamimidoyl-1H-indole-2-carbonyl)-amino]-propionylamino}-3-phenyl-propionic acid], the IC50 [1] was 1.35 µM.

`N=C(N)c1ccc2c(C(=O)NCCC(=O)NC(CC(=O)O)c3ccccc3)c[nH]c2c1` (configuration not stated) [3-{3-[(6-Carbamimidoyl-1H-indole-3-carbonyl)-amino]-propionylamino}-3-phenyl-propionic acid] showed an IC50 [1] of 2.2 µM.

Work on `N=C(N)c1ccc2[nH]c(C(=O)N3CCC(C(=O)NC(CC(=O)O)c4ccccc4)CC3)cc2c1` (configuration not stated) [3-{[1-(5-Carbamimidoyl-1H-indole-2-carbonyl)-piperidine-4-carbonyl]-amino}-3-phenyl-propionic acid] yielded an IC50 [1] of 25 µM.

Compound `N=C(N)c1ccc2oc(C(=O)N3CCCC(C(=O)NC(CC(=O)O)c4ccccc4)C3)cc2c1` (configuration not stated) [3-{[1-(5-Carbamimidoyl-benzofuran-2-carbonyl)-piperidine-3-carbonyl]-amino}-3-phenyl-propionic acid] has an IC50 [1] of 0.25 µM.

Compound `N=C(N)c1ccc2oc(C(=O)N3Cc4ccccc4CC3C(=O)NC(CC(=O)O)c3ccccc3)cc2c1` (configuration not stated) [3-{[2-(5-Carbamimidoyl-benzofuran-2-carbonyl)-1,2,3,4-tetrahydro-isoquinoline-3-carbonyl]-amino}-3-phenyl-propionic acid] has an IC50 [1] of 5 µM.

With `N=C(N)c1ccc2oc(C(=O)N3CCC[C@@H]3C(=O)NC(CC(=O)O)c3ccccc3)cc2c1` (stereo partly drawn) [3-{[(R)-1-(5-Carbamimidoyl-benzofuran-2-carbonyl)-pyrrolidine-2-carbonyl]-amino}-3-phenyl-propionic acid] the IC50 [1] was 2 µM.

For `N=C(N)c1ccc2[nH]c(C(=O)N3CCC[C@H]3C(=O)NC(CC(=O)O)c3ccccc3)cc2c1` (stereo partly drawn) [3-{[(S)-1-(5-Carbamimidoyl-1H-indole-2-carbonyl)-pyrrolidine-2-carbonyl]-amino}-3-phenyl-propionic acid], the IC50 [1] was 5 µM.

`CCCCS(=O)(=O)N[C@@H](CNC(=O)CCNC(=O)c1cc2cc(C(=N)N)ccc2o1)C(=O)O` [(S)-2-(Butane-1-sulfonylamino)-3-{3-[(5-carbamimidoyl-benzofuran-2-carbonyl)-amino]-propionylamino}-propionic acid] gave an IC50 [1] of 0.035 µM.

Work on `N=C(N)c1ccc2oc(C(=O)NCCC(=O)NC[C@H](N)C(=O)O)cc2c1` [(S)-2-Amino-3-{3-[(5-carbamimidoyl-benzofuran-2-carbonyl)-amino]-propionylamino}-propionic acid] yielded an IC50 [1] of 0.2 µM.

With `N=C(N)c1ccc2oc(C(=O)NCCC(=O)NC[C@H](NS(=O)(=O)c3ccc(I)cc3)C(=O)O)cc2c1` [(S)-3-{3-[(5-Carbamimidoyl-benzofuran-2-carbonyl)-amino]-propionylamino}-2-(4-iodo-benzenesulfonylamino)-propionic acid] the IC50 [2] was 0.025 µM.

Work on `CN(C)c1cccc2c(S(=O)(=O)N[C@@H](CNC(=O)CCNC(=O)c3cc4cc(C(=N)N)ccc4o3)C(=O)O)cccc12` [(S)-3-{3-[(5-Carbamimidoyl-benzofuran-2-carbonyl)-amino]-propionylamino}-2-(5-dimethylamino-naphthalene-1-sulfonylamino)-propionic acid] yielded an IC50 [2] of 0.065 µM.
